Reference: patent publication US20090305955A1, “Cyclopeptide with Anti-Cancer Activity Derived from Collagen Type IV” (priority 2006, published 2009)
Where a SMILES comes first, the peptide text is derived from it.

How the values were obtained:
Type in all cases: cell-based, human
HUVEC cells [1] = assay: Scar wounding technique (artificial wound model); settings: 48 h incubation, 20 μM
Experimental: FIG. 18: In vitro inhibition of HUVEC cell migration in the presence of YSNSG (SEQ ID NO: 3) cyclopeptide. Microscope photographs of artificial wounds produced on a monolayer of endothelial cells at T0 and T48h in the absence of peptide (control) or in the presence of 20 μM of YSNSG (SEQ ID NO: 3) cyclopeptide;
1×10^5 endothelial cells were seeded into 24-well plates and incubated for 24 hours at 37° C. A wound was made in the cellular monolayer at the centre of the well using a 200 μl cone point. The cells were washed with PBS to eliminate cell debris then incubated in the presence or absence of the cyclopeptide YSNSG (SEQ ID NO: 3). Closing of the wound, a witness to the migratory properties of the cells, was observed under the microscope and photographed after 48 hours incubation.

u-PA = assay: Zymography in the presence of gelatine and plasminogen, HUVEC conditioned medium; settings: 20 μM
Experimental: FIG. 20: Effect of YSNSG (SEQ ID NO: 3) cyclopeptide on the secretion of plasminogen activators. The secretion of u-PA and t-PA was analyzed by zymography in the presence of gelatine and plasminogen (A) in a medium conditioned by HUVEC cells in the absence (control) or in the presence of 20 μM of cyclopeptide YSNSG (SEQ ID NO: 3). Quantification was carried out using Bio 1D software (B);
To determine the plasminogen activities, conditioned media of UACC-903 cells were analyzed by polyacrylamide gel electrophoresis in the presence of SDS and containing 1 mg/ml of gelatine and 10 μg/ml of plasminogen. After electrophoresis, the gels were incubated overnight at ambient temperature in a 100 mM glycine, 5 mM EDTA, pH 8.0 buffer.

HMEC-1 cells = assay: Formation of capillary pseudotubes on Matrigel; settings: 24 hours
Experimental: FIG. 17: In vitro anti-angiogenic activity of cyclopeptide YSNSG (SEQ ID NO: 3). A: microscope photographs of the network of capillary pseudotubes of HMEC-1 endothelial cells after 24 hours incubation in the absence of peptide (control; 1), with the cyclopeptide YSNSG (SEQ ID NO: 3) at a concentration of 10 or 20 μM (2 and 3 respectively) or with the linear heptapeptide CNYYSNS (SEQ ID NO: 5) (20 μM) (positive control; 4). B: quantification of number of pseudotubes in photographs in A;
(§1) The in vitro anti-angiogenic activity of the cyclopeptide YSNSG (SEQ ID NO: 3) was measured on the formation of capillary pseudotubes by endothelial HMEC-1 or HUVEC cells deposited on a Matrigel mat.
A solution of Matrigel (ECM gel: 10 mg/ml) was deposited in a sterile manner in 24-well plates (Nunclon) in an amount of 250 μl per well onto piled ice. Gel formation was obtained by incubating the plate at 37° C. for 30 min. HMEC-1 cells or HUVEC cells at sub-confluence were detached from their plastic culture support by adding trypsin/EDTA then taken up into suspension in the culture medium for endothelial cells and diluted to a concentration of 2×10^5 cells per ml. 100 μl volumes of this cell suspension were deposited on the gel surface. […] Quantification was carried out using image analysis software.

actin cytoskeleton = assay: Labelling actin F (phalloidin), HUVEC cells; settings: 20 μM, 48 h
Experimental: FIG. 22: Effect of YSNSG (SEQ ID NO: 3) cyclopeptide on the organization of the cytoskeleton of HUVEC cells. The cells were cultivated on glass slides in the absence (control) or in the presence of 20 μM of YSNSG (SEQ ID NO: 3) cyclopeptide. After 48 h of incubation, the cells were fixed, permeabilized, incubated with phalloidin (A) or with an anti-Phospho-FAK antibody (B) then with Hoechst-33342. The slides were observed under a confocal microscope;
The cells were seeded onto sterile glass slides placed in a 24-well plate (2×10^4 cells/well) in a suitable medium containing 5% of serum, in the presence or absence of the cyclopeptide YSNSG (SEQ ID NO: 3). After 24 and 48 hours incubation, the cells were fixed with 3.7% formaldehyde for 10 minutes at ambient temperature and permeabilized for 3 minutes with an acetone solution at −20° C. Three 5 minute washes in PBS were carried out, then the cells were incubated for 30 minutes at ambient temperature in a saturation solution (PBS containing 1% bovine serum albumin). The cells were then incubated for 1 hour with phalloidin coupled with Alexa Fluor® 568 (diluted 1/40 in PBS containing 1% BSA) then washed 3 times for 5 minutes with PBS.

HUVEC cells [2] = assay: Formation of capillary pseudotubes on Matrigel; settings: 20 μM
Experimental: as §1
A solution of Matrigel (ECM gel: 10 mg/ml) was deposited in a sterile manner in 24-well plates (Nunclon) in an amount of 250 μl per well onto piled ice. Gel formation was obtained by incubating the plate at 37° C. for 30 min. HMEC-1 cells or HUVEC cells at sub-confluence were detached from their plastic culture support by adding trypsin/EDTA then taken up into suspension in the culture medium for endothelial cells and diluted to a concentration of 2×10^5 cells per ml. 100 μl volumes of this cell suspension were deposited on the gel surface. After incubating for 1 hour at 37° C. to allow cell adhesion, the various peptides were added in solution to 400 μl of the culture medium (final concentration 10 or 20 μM). Pseudotube formation was observed under the microscope and photographed, after incubating for 24 hours. Quantification was carried out using image analysis software.

β1 sub-unit of integrin = assay: β1 integrin immunolabelling, HUVEC cells; settings: 20 μM, 48 h
Experimental: FIG. 23: Effect of YSNSG (SEQ ID NO: 3) cyclopeptide on the distribution of β1 integrin subunits on the surface of HUVEC cells. The cells were cultivated on glass slides in the absence (control) or in the presence of 20 μM of YSNSG (SEQ ID NO: 3) cyclopeptide. After 48 h of incubation, the cells were fixed and incubated in the presence of antibodies directed against the β1 integrin subunit. The slides were observed using a confocal microscope.
The cells were seeded onto sterile glass slides placed in 24-well plates (2×10^4 cells/well) in a suitable medium containing 5% serum in the presence or absence of YSNSG (SEQ ID NO: 3) cyclopeptide. After 24 and 48 hours incubation, the cells were fixed for 15 minutes in methanol. Three washes of 5 minutes in TBS-T were carried out, then the cells were incubated for 30 minutes at ambient temperature in a saturation solution (TBS-T containing 3% BSA). The cells were then incubated for 2 hours at ambient temperature in the presence of primary antibody diluted to 1/100 in TBS-T containing 3% BSA.

HUVEC cells [3] = assay: HUVEC cell proliferation

NC(=O)CC1NC(=O)C(CO)NC(=O)C(Cc2ccc(O)cc2)NC(=O)CNC(=O)C(CO)NC1=O (centres unmarked) [cyclopeptide YSNSG, cyclopeptide YSNSG (SEQ ID NO: 3)] (cyclo(GYSNS); configuration not given here)
inhibition of the migration of the HUVEC cells (HUVEC cells [1]): 83%
reduction in the production of u-PA (u-PA): −27%
reduces the formation of pseudotubes (HMEC-1 cells; 10 μM): 40%
reduces the formation of pseudotubes (HMEC-1 cells; 20 μM): up to 70%
organization of the actin cytoskeleton (actin cytoskeleton): modification
inhibition of capillary pseudotube formation (HUVEC cells [2]): 45%
Expression of the β1 sub-unit of integrin at the cellular periphery (β1 sub-unit of integrin): enhanced
cell proliferation of HUVEC cells (HUVEC cells [3]): did not modify
